Converted amounts (≈) assume the structure as drawn.
Experiment: Kinetic solubility assay
Format: physicochemical
Conditions: phosphate buffer, pH 7.4, aqueous buffer, kinetic from dmso stock

Row | SMILES | solubility kinetic at 6 h [µg/mL]
1 | CCCSc1ccc2nc(NC(=O)OC)[nH]c2c1 [Albendazole, albendazole] | < 1
2 | Nc1ccc(/N=N/c2ccccc2)c(N)n1 [phenazolpyridine] | 27.7 ± 4.49 (≈ 130 µM)

Source: PMC8274818 (Bioorganic & medicinal chemistry, 2019)
